Test results as given in US20120014956A1, “METHODS AND COMPOSITIONS FOR PREDICTING RESPONSIVENESS TO TREATMENT WITH TNF-ALPHA INHIBITOR” (priority 2010, published 2012).

System: patients with early RA
Assay: OPTIMA genetic substudy: ACR20/50/70 response at Week 26
Format: in vivo, human
Details: for ACR50, % / ACR50, n/N: 26 weeks; for ACR20 Response Rates at Week 26 (title; column head ACR70), % subjects / ACR20 Response Rates at Week 26 (title; column head ACR70), n/N subjects: Table 6a; for ACR20 Response Rates at Week 26 (title; column head ACR70), % subjects / ACR20 Response Rates at Week 26 (title; column head ACR70), n/N subjects / ACR50 response rate, % subjects / ACR50 response, n/N subjects / ACR70 response rate, % subjects / ACR70 response, n/N subjects / ACR20 response rate, % subjects / ACR20 response, n/N subjects: Week 26
Text: The objective of the study was to prospectively analyze the association of 3 genetic risk factors (HLA-DRB1 shared epitope (SE), FcγRIIb, and IL-4R) for severe RA with clinical disease activity after 26 weeks of combination therapy with adalimumab (ADA) and methotrexate (MTX) or MTX monotherapy in a substudy of OPTIMA (A Multicentre, Randomized, Double Period, Double-Blind Study to Determine the Optimal Protocol for Treatment Initiation With Methotrexate and Adalimumab Combination Therapy in Patients With Early Rheumatoid Arthritis).
OPTIMA is an ongoing 78-week study with 26- and 52-week periods. Eligible patients had RA<1 year (1987-revised ACR classification), 28-joint Disease Activity Score (DAS28)>3.2, ≧6 swollen joints […], and ≧8 tender joints (SSJC66≧8). Patients had elevated erythrocyte sedimentation rate (ESR)≧28 mm/h or C-reactive protein (CRP)≧1.5 mg/dL and ≧1 of the following: >1 erosion, rheumatoid-factor positive (RF+), or anti-cyclic citrullinated peptide antibody positive (anti-CCP+). Exclusion criteria included prior exposure to systemic anti-TNF therapies, treatment with MTX or >2 disease-modifying anti-rheumatic drugs (DMARDs), other acute inflammatory joint diseases, or steroidal or surgical treatment within 4 weeks or 2 months, respectively.
In Period 2, those combination therapy responders, e.g., meeting DAS28 low disease activity (LDA) criteria (DAS28<3.2), were re-randomized 1:1 to remain on ADA+MTX or to “step down” to PBO+MTX for Weeks 26-78. In the initial PBO+MTX monotherapy group, subjects who achieved DAS28 LDA after Period 1 remained blinded on PBO+MTX for Period 2. […] Genetic data were associated with Week-26 clinical response.
For clinical assessment, the percentage of subjects achieving a 20%, 50%, and 70% improvement from baseline ACR scores was determined after Week 26 using a non-responder imputation approach. DAS28(CRP)^1 scores were evaluated at Week 26. The proportion of subjects achieving LDA (DAS28<3.2) and remission criteria (DAS28<2.6) was determined using a non-responder imputation approach.
For statistical analyses, Allele distribution between treatment groups was evaluated using the chi-square test, or Fisher's exact test in cases where data were sparse. The chi-square test was used to compare the proportion of subject achieving ACR20/50/70 and DAS28 LDA (<3.2) or remission (<2.6) within and between treatment groups.
MTX-naïve patients were randomized 1:1 to ADA (40 mg eow)+MTX (titrated to 20 mg/wk by Week 8) or placebo (PBO)+MTX for the first 26 weeks.
The percentage of subjects achieving a 50% improvement in the ACR score from baseline was determined at Week 26 using a non-responder imputation approach. The percentage of subjects achieving DAS28(CRP) remission (DAS28<2.6) was determined at Week 26 using a non-responder imputation approach.
Allele distribution between treatment groups was evaluated using the chi-square test, or Fisher's exact test in cases where data were sparse. Multivariate logistic regression was used to evaluate the effect of treatment, individual alleles, the interaction between treatment and genetic components, and baseline demographics and disease characteristics on clinical responses at 26 weeks.
MTX-naïve pts ≧18 years old with RA<1 year and active disease (DAS28>3.2, ESR≧28 mm/h or CRP≧1.5 mg/dL), and either >1 erosions, RF+, or anti-CCP+ were randomized to ADA+MTX (N=515) or PBO+MTX (N=517) for 26 wks. This analysis presents clinical outcomes at 26 weeks by HLA-DRB1 SE copy number (0×, 1×, or 2×), IL-4R I50V (AA, AG, or GG), and FcγRIIb I232T (TT, TC, CC) alleles. Non-responder imputation was used to calculate the percent of patients achieving ACR20/50/70 and DAS28 low disease activity (LDA, DAS28<3.2) and remission (DAS28<2.6). Multiple logistic regression was used to assess the influence of potential confounding baseline variables. […]

[1] = HLA-DRB1 SE 0 copies, non-responder imputation

## CN(Cc1cnc2nc(N)nc(N)c2n1)c1ccc(C(=O)N[C@@H](CCC(=O)O)C(=O)O)cc1 [PBO + MTX, methotrexate]
IL-4R AA, HLA-DRB1 SE copy # 0
  ACR50, %: (44%)
  ACR50, n/N: 15/34
IL-4R AA, HLA-DRB1 SE copy # 1
  ACR50, %: (41%)
  ACR50, n/N: 23/56
IL-4R AA, HLA-DRB1 SE copy # 2
  ACR50, %: (30%)
  ACR50, n/N: 7/23
IL-4R AG, HLA-DRB1 SE copy # 0
  ACR50, %: (42%)
  ACR50, n/N: 33/78
IL-4R AG, HLA-DRB1 SE copy # 1
  ACR50, %: (37%)
  ACR50, n/N: 34/92
IL-4R AG, HLA-DRB1 SE copy # 2
  ACR50, %: (38%)
  ACR50, n/N: 12/32
IL-4R GG, HLA-DRB1 SE copy # 0
  ACR50, %: (47%)
  ACR50, n/N: 18/38
IL-4R GG, HLA-DRB1 SE copy # 1
  ACR50, %: (40%)
  ACR50, n/N: 14/35
IL-4R GG, HLA-DRB1 SE copy # 2
  ACR50, %: (50%)
  ACR50, n/N: 1/2
ADA+MTX: FcγRIIb-CC with ACR70 and DAS28 remission
  association of FcγRIIb with 26-week response, multiple logistic regression: failed to show a significant association
IL-4R alone
  association of IL-4R with 26-week response, multiple logistic regression: failed to show a significant association
PBO+MTX: ACR20 and ACR50, ADA+MTX: ACR20/50/70 and DAS28 LDA
  association of SE copy number with 26-week response, multiple logistic regression: significant negative effect
IL-4R AA
  ACR20 Response Rates at Week 26 (title; column head ACR70), % subjects: (13%)
  ACR20 Response Rates at Week 26 (title; column head ACR70), n/N subjects: 17/130
IL-4R AG
  ACR20 Response Rates at Week 26 (title; column head ACR70), % subjects: (19%)
  ACR20 Response Rates at Week 26 (title; column head ACR70), n/N subjects: 42/233
IL-4R GG
  ACR20 Response Rates at Week 26 (title; column head ACR70), % subjects: (18%)
  ACR20 Response Rates at Week 26 (title; column head ACR70), n/N subjects: 16/88
HLA-DRB1 SE 0 copies
  ACR50 response rate, % subjects: (40%)
  ACR50 response, n/N subjects: 66/167
  ACR70 response rate, % subjects: (19%)
  ACR70 response, n/N subjects: 31/157
HLA-DRB1 SE 0 copies, listed as MTX
  ACR50 response rate, % subjects: 40%
[1]
  ACR20 response rate, % subjects: (63%)
  ACR20 response, n/N subjects: 105/167
HLA-DRB1 SE 1 copy
  ACR20 response rate, % subjects: (54%)
  ACR20 response, n/N subjects: 115/215
  ACR50 response rate, % subjects: (33%)
  ACR50 response, n/N subjects: 71/215
  ACR70 response rate, % subjects: (17%)
  ACR70 response, n/N subjects: 36/215
HLA-DRB1 SE 1 copy, listed as MTX
  ACR50 response rate, % subjects: 33%
HLA-DRB1 SE 2 copies
  ACR20 response rate, % subjects: (52%)
